EP0263214A1, “Tetrapeptide methyl ketone inhibitors of viral proteases” (priority 1986, dated 1988)
Where two headings read alike, the source gives them in different places. * marks the point of attachment. CH2Cl = ClC*

What was measured:
[1] = test system: human poliomyelitis virus type 2; format: cell-based
[2] = test system: human rhinovirus type 1A; format: cell-based
[3] = test system: Poliovirus type 2; format: cell-based
[4] = test system: rhinovirus type 1A; format: cell-based
[5] = test system: HeLa cells
[6] = test system: chymotrypsin; conditions: inhibitor concentration of 600 ug/rnL; cited from earlier work
[7] = test system: subtilisin BPN'; conditions: compared within a series of peptide chloromethyl ketones; cited from earlier work

COC(=O)CCC(=O)N[C@@H](Cc1ccccc1)C(=O)NCC(=O)N[C@@H](CC(C)C)C(=O)N[C@@H](CC(C)C)C(C)=O [MeOSuc-Phe-Gly-Leu-LeuCH3]
activity in the viral cleavage assay ([1]; 50 µg/mL): active

CC(=O)[C@H](CC(C)C)NC(=O)[C@H](C)NC(=O)CNC(=O)[C@H](Cc1ccccc1)NC(=O)OC(C)(C)C [Boc-Phe-Gly-Ala-LeuCH3, reference compound]
activity in the viral cleavage assay [2]: failed to show activity
activity in the viral cleavage assay [1]: failed to show activity

CC(=O)[C@H](CC(C)C)NC(=O)[C@H](C)NC(=O)CNC(=O)[C@H](Cc1ccccc1)NC(=O)OCc1ccccc1 [Z-Phe-Gly-Ala-LeuCH3]
activity in the viral cleavage assay ([1]; 50 µg/mL): active
plaque reduction [3]: > 90%
plaque reduction [4]: > 90%
cytotoxicity [5]: No cytotoxicity was observed

Ac-Leu-Leu-PheCH3
inhibition of chymotrypsin [6]: no inhibition was observed

acetyl-L-phenylalanyl-L-glycyl-L-alanyl-L-leucyl chloromethyl ketone (Ac-FGAL-CH2Cl; SMILES CC(=O)N[C@@H](Cc1ccccc1)C(=O)NCC(=O)N[C@@H](C)C(=O)N[C@@H](CC(C)C)C(=O)CCl) [Ac-Phe-Gly-Ala-LeuCH2CI]
inhibition of subtilisin BPN' [7]: fastest inhibitor
